Read-outs that look alike come from different tables or passages of the source. Blank lines part the entries; values can stand above or below the compound they belong to.
Columns and labels:
Type in all cases: cell-based
[1] = system: Streptococcus pyogenes ATCC 19615; test: Broth microdilution MIC of SP-BIMs; details: ATCC19615, SP-BIM alone, read-out: MIC Streptococcus pyogenes ATCC 19615
[2] = system: Bacillus cereus ATCC 14579; test: Broth microdilution MIC of SP-BIMs; details: ATCC14579, SP-BIM alone, read-out: MIC Bacillus cereus ATCC 14579
[3] = system: Enterococcus faecium ATCC 19434; test: Broth microdilution MIC of SP-BIMs; details: ATCC19434, SP-BIM alone, read-out: MIC Enterococcus faecium ATCC 19434
[4] = system: Corynebacterium diphtheriae ATCC 27010; test: Broth microdilution MIC of SP-BIMs; details: ATCC27010, SP-BIM alone, read-out: MIC Corynebacterium diphtheriae ATCC 27010
[5] = system: Staphylococcus aureus ATCC 12600; test: Broth microdilution MIC of SP-BIMs; details: ATCC12600, SP-BIM alone, read-out: MIC Staphylococcus aureus ATCC 12600
[6] = system: Klebsiella pneumoniae ATCC 49472; test: Broth microdilution MIC of SP-BIMs; details: ATCC49472, SP-BIM alone, read-out: MIC Klebisella pneumoniae ATCC 49472
[7] = system: Escherichia coli ATCC 35218; test: Broth microdilution MIC of SP-BIMs; details: ATCC35218, SP-BIM alone, read-out: MIC Escherichia coli ATCC 35218
[8] = system: Salmonella typhimurium ATCC 14028; test: Broth microdilution MIC of SP-BIMs; details: Salmonella enterica, read-out: MIC Salmonella tvpkimurium ATCC 14028
Source text: Reference microorganisms used in this study included: Bacillus cereus (American Type Culture Collection (ATCC) No. 14579), Streptococcus pyogenes (ATCC No. 19615), Staphylococcus aureus (ATCC No. 12600), Enterococcus faecium (ATCC No. 19434), Corynebacterium diphtheriae (ATCC No. 27010), Escherichia coli (ATCC No. 35218), Salmonella typhimurium (ATCC No. 14028), Pseudomonas aeruginosa (ATCC No. 27853), Klebsiella pneumoniae (ATCC No. 49472), and Candida albicans (ATCC No. 22972).
Prior to each experiment, cultures were streaked onto clean BHI agar plates and incubated at 35° C. for 24 hours. Colonies of the respective cultures were selected and inoculated in phosphate buffer saline (pH 7.5) to a 0.5 McFarland turbidity standard (equivalent to 10^8 CFU mL^−1). The bacterial suspension was then diluted 1:100 in cation adjusted Mueller Hinton Broth (ca-MHB) (Oxoid Ltd, Basingstoke, Hampshire, England).
Stock solutions (50 mg mL^−1) of the SP-BIM test compounds were prepared in DMSO and stored at 4° C. Working preparations of each compound was made up to 1 mg/mL in sterile deionized water with a final DMSO concentration of 10%.
To assess the antibiotic properties of the library of SP-BIMs, the broth microdilution assay was performed in 96-well microplates according to the Clinical and Laboratory Standards Institute 2014 Guidelines (CLSI 2014). The broth microdilution assay was used to determine the minimum inhibitory concentration (MIC). […] Bacterial cells (˜10^6 CFU mL^−1) were inoculated into cation adjusted-Mueller Hinton broth containing the test compound in a twofold serial dilution ranging between 250 μg mL^−1 and 0.02 μg mL^−1. Plates were incubated at 35° C. for 18 hours after which 50 μL of 5% resazurin solution was added to each well. Resazurin is a blue dye which, upon reduction by living cells, turns to a pink resorufin product. Plates were shaken for 1 hour after the addition of the dye. The MIC was recorded as the well with the lowest concentration of test compound where no color change was observed.

[9] = system: Pseudomonas aeruginosa ATCC 27853; test: Broth microdilution MIC of SP-BIMs; details: ATCC27853, SP-BIM alone, read-out: MIC Pseudomonas aeruginosa ATCC 27853
[10] = system: Candida albicans ATCC 22972; test: Broth microdilution MIC of SP-BIMs; details: ATCC22972, SP-BIM alone, read-out: MIC Candida albicans ATCC 22972
Streptococcus pneumoniae = test: Adjuvant broth microdilution (antibiotic MIC with SP-BIM at 50 μg/mL); details: Streptococcus pneumoniae, Streptococcus pneumonia, SP-BIM at 50 μg mL^−1
sheep erythrocyte = test: Hemotoxicity (hemolysis assay); details: 2% sheep erythrocyte solution; SP-BIMs 6, 11 and 18 at concentrations between 125-16 μg mL^−1
Procedure: Hemotoxicity of the SP-BIMs were assessed following Wauford, “Hemolysis Assay”, protocols.io/view/hemolysis-assay-fxkbpkw (2016). Briefly, twofold serial dilutions of each test SP-BIM were added to 2% sheep erythrocyte solution and incubated for 30 minutes at 37° C. Samples were centrifuged at 2500 g for 5 minutes and the absorbance of the supernatants measured at 541 nm. Values were represented as percent hemolysis using freeze thaw cells as 100% lysis.

Gram-negative bacteria = test: Adjuvant broth microdilution; details: SP-BIM at 50 μg mL^−1
Procedure: To each well, the SP-BIM to be tested was added to a final concentration of 50 μg mL^−1. […] SP-BIMs were assessed as potential adjuvants based on their ability to reduce the MIC of the antibiotic against respective pathogen.

Pseudomonas aeruginosa = test: Rescue concentrations of SP-BIM that reactivate antibiotic; details: P. aeruginosa
[11] = read-out: MIC of Kanamvcin with SP-BIM
[12] = read-out: MIC of Vancomvcin with SP-BIM

Structure (SMILES): Oc1ccccc1C(c1c[nH]c2ccccc12)c1c[nH]c2ccccc12 [SP-BIM 11, bis(indol-3-yl)-2-hydroxyphenylmethane]
MIC [1]: > 250 mg/L
MIC [2]: > 250 mg/L
MIC [3]: > 250 mg/L
MIC [4]: > 250 mg/L
MIC [5]: > 250 mg/L
MIC [6]: > 250 mg/L
MIC [7]: > 250 mg/L
MIC [8]: 250 mg/L
MIC [9]: 250 mg/L
MIC [10]: 250 mg/L
MIC (Streptococcus pneumoniae; [11]): 125 mg/L
MIC (Streptococcus pneumoniae; [12]): 1 mg/L
hemotoxicity (sheep erythrocyte): very hemotoxic

Structure (SMILES): Oc1cc(Br)ccc1C(c1c[nH]c2ccccc12)c1c[nH]c2ccccc12 [SP-BIM 15, 5-bromo-2-(di(1H-indol-3-yl)methyl)phenol]
MIC [1]: 125 mg/L
MIC [2]: 125 mg/L
MIC [3]: 125 mg/L
MIC [4]: > 250 mg/L
MIC [5]: > 250 mg/L
MIC [6]: > 250 mg/L
MIC [7]: > 250 mg/L
MIC [8]: 250 mg/L
MIC [9]: 250 mg/L
MIC [10]: 250 mg/L
MIC (Streptococcus pneumoniae; [11]): 4 mg/L
MIC (Streptococcus pneumoniae; [12]): 0.2 mg/L
potentiating activity for Gram-negative bacteria (Gram-negative bacteria): No potentiating activity was observed

Structure (SMILES): COc1ccc(C(c2c[nH]c3ccccc23)c2c[nH]c3ccccc23)cc1 [SP-BIM 18, bis(indol-3-yl)-4-methoxyphenylmethane]
MIC [1]: > 250 mg/L
MIC [2]: > 250 mg/L
MIC [3]: > 250 mg/L
MIC [4]: > 250 mg/L
MIC [5]: > 250 mg/L
MIC [6]: > 250 mg/L
MIC [7]: > 250 mg/L
MIC [8]: 250 mg/L
MIC [9]: 250 mg/L
MIC [10]: 250 mg/L
MIC (Streptococcus pneumoniae; [11]): 125 mg/L
MIC (Streptococcus pneumoniae; [12]): 1 mg/L
hemotoxicity (sheep erythrocyte): very hemotoxic

MIC of chloramphenicol in combination with 64 μg/mL SP-BIM 23 (Pseudomonas aeruginosa): 4 mg/L
MIC (Pseudomonas aeruginosa; Pseudomonas aeruginosa, agent alone, read-out: MIC (single agent)): > 250 mg/L
Structure (SMILES): Oc1ccc2c(C(c3ccc(Br)cc3)c3c[nH]c4cc(O)ccc34)c[nH]c2c1 [SP-BIM 23, 3,3′-((4-bromophenyl)methylene)bis(1H-indol-6-ol)]
